Results as given in BindingDB's records for doi:10.1021/jm00157a006 (1987).
Non-standard residues stand in square brackets, D forms with d. Residues, ends and D or L forms follow the SMILES beside them. *: point of attachment. Ala(1-Adamantyl) = N[C@@H](CC12CC3CC(CC(C3)C1)C2)C(=O)O; Sta = CC(C)C[C@H](N)[C@@H](O)CC(=O)O; Cbz = O=C(OCc1ccccc1)*; Boc = CC(C)(C)OC(=O)*

Tests used:
Renin (Sus scrofa) [1] = assay: In vitro inhibitory activity against hog plasma renin
Renin (Sus scrofa) [2] = assay: Inhibition of hog […] plasma renin activity

IC50 (Renin (Sus scrofa) [2])	Compound	IC50 (Renin (Sus scrofa) [1])
	COC(=O)C[C@H](O)[C@H](CC(C)C)NC(=O)[C@H](C)NC(=O)C[C@H](O)[C@H](CC(C)C)NC(=O)[C@H](Cc1ccccc1)NC(=O)[C@H](Cc1ccccc1)NC(=O)OC(C)(C)C [4-(2-{4-[2-(2-tert-Butoxycarbonylamino-3-phenyl-propionylamino)-3-phenyl-propionylamino]-3-hydroxy-6-methyl-heptanoylamino}-propionylamino)-3-hydroxy-6-methyl-heptanoic acid methyl ester]	52 nM
	COC(=O)C[C@H](O)[C@H](CC(C)C)NC(=O)[C@H](C)NC(=O)C[C@H](O)[C@H](CC(C)C)NC(=O)[C@H](Cc1c[nH]cn1)NC(=O)[C@H](CC12CC3CC(CC(C3)C1)C2)NC(=O)OC(C)(C)C [4-(2-{4-[2-(3-Adamantan-1-yl-2-tert-butoxycarbonylamino-propionylamino)-3-(1H-imidazol-4-yl)-propionylamino]-3-hydroxy-6-methyl-heptanoylamino}-propionylamino)-3-hydroxy-6-methyl-heptanoic acid methyl ester] (Boc-[Ala(1-Adamantyl)]H[Sta]A[Sta]-OMe)	600 nM
15 nM	COC(=O)C[C@H](O)[C@H](CC(C)C)NC(=O)[C@H](C)NC(=O)C[C@H](O)[C@H](CC(C)C)NC(=O)[C@@H](NC(=O)[C@H](Cc1c[nH]c2ccccc12)NC(=O)OCc1ccccc1)C(C)C [4-[2-(4-{2-[2-Benzyloxycarbonylamino-3-(1H-indol-3-yl)-propionylamino]-3-methyl-butyrylamino}-3-hydroxy-6-methyl-heptanoylamino)-propionylamino]-3-hydroxy-6-methyl-heptanoic acid methyl ester] (Cbz-WV[Sta]A[Sta]-OMe)	
